# Strand notation (5' to 3'): a small letter for the sugar, then the base; units joined by * are phosphorothioate-linked, units joined directly phosphodiester-linked; [ ] holds rarer units or linkages, { } end groups; capitals alone tell only the bases. e = 2'-O-(2-methoxyethyl) (MOE); [5mC] = 5-methylcytosine; d = 2'-deoxy (DNA)
# Test system: human PKK mRNA
# Assay: Antisense inhibition of human PKK mRNA in HepaRG cells, 3,000 nM (Example 1)
# Format: cell-based
# Settings: Table 2; PKK mRNA, HepaRG cells, 3,000 nM, electroporation, ~24 h, relative to untreated control cells
# How it was run: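 HepaRG cells, 20,000 per well, were electroporated with 3,000 nM 5-10-5 MOE gapmer (phosphorothioate, 5-methylcytosine). After about 24 h, PKK mRNA was measured by qRT-PCR with primer probe set RTS3454 and normalised to RIBOGREEN total RNA. Values are percent inhibition versus untreated cells.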
row,Substance,% inhibition [%]
1,531034 (antisense e[5mC]*eA*eT*eA*eT*dT*dG*dG*dT*dT*dT*dT*dT*dG*dG*eA*eA*eT*eT*e[5mC]) [compound 531034],36
2,531035 (antisense eG*eT*eA*eG*eG*d[5mC]*dA*dT*dA*dT*dT*dG*dG*dT*dT*eT*eT*eT*eG*eG) [compound 531035],46
3,531036 (antisense eG*eT*eG*eT*e[5mC]*dA*d[5mC]*d[5mC]*dT*dT*dT*dG*dG*dA*dA*eG*eG*eT*eA*eG) [compound 531036],71
4,531037 (antisense eA*eA*e[5mC]*eA*eG*dT*dT*dG*dG*dT*dA*dT*dA*dA*dA*eT*eT*eG*eT*eG) [compound 531037],35
5,531038 (antisense e[5mC]*eA*eA*e[5mC]*eA*dG*dT*dT*dG*dG*dT*dA*dT*dA*dA*eA*eT*eT*eG*eT) [compound 531038],22
6,531039 (antisense eT*eA*e[5mC]*e[5mC]*e[5mC]*dA*dA*d[5mC]*dA*dG*dT*dT*dG*dG*dT*eA*eT*eA*eA*eA) [compound 531039],36
7,531040 (antisense eT*e[5mC]*e[5mC]*eT*eT*d[5mC]*dG*dA*dG*dA*dA*dG*d[5mC]*d[5mC]*d[5mC]*e[5mC]*eA*eT*e[5mC]*e[5mC]) [compound 531040],27
8,531041 (antisense eA*eA*eA*eG*eG*dA*dA*dT*dA*dT*dT*dT*dA*d[5mC]*d[5mC]*eT*eT*eT*eT*eG) [compound 531041],68
9,531042 (antisense eT*eT*eA*e[5mC]*e[5mC]*dA*dA*dA*dG*dG*dA*dA*dT*dA*dT*eT*eT*eA*e[5mC]*e[5mC]) [compound 531042],11
10,531043 (antisense eA*eT*eT*eT*eG*dT*dT*dA*d[5mC]*d[5mC]*dA*dA*dA*dG*dG*eA*eA*eT*eA*eT) [compound 531043],27
11,531044 (antisense eG*eG*e[5mC]*eA*eT*dT*d[5mC]*dT*dT*d[5mC]*dA*dT*dT*dT*dG*eT*eT*eA*e[5mC]*e[5mC]) [compound 531044],68
12,531045 (antisense eT*eT*eT*e[5mC]*eT*dG*dG*d[5mC]*dA*dT*dT*d[5mC]*dT*dT*d[5mC]*eA*eT*eT*eT*eG) [compound 531045],37
13,531046 (antisense eG*eA*eT*eA*eT*d[5mC]*dT*dT*dT*dT*d[5mC]*dT*dG*dG*d[5mC]*eA*eT*eT*e[5mC]*eT) [compound 531046],54
14,531047 (antisense eA*eT*e[5mC]*eT*eT*dG*dA*dT*dA*dT*d[5mC]*dT*dT*dT*dT*e[5mC]*eT*eG*eG*e[5mC]) [compound 531047],68
15,531048 (antisense eT*eT*eA*eT*eA*dA*dT*d[5mC]*dT*dT*dG*dA*dT*dA*dT*e[5mC]*eT*eT*eT*eT) [compound 531048],42
16,531049 (antisense eT*eT*eA*eT*eT*dT*dT*dA*dT*dA*dA*dT*d[5mC]*dT*dT*eG*eA*eT*eA*eT) [compound 531049],2
17,531050 (antisense eT*eT*eG*eG*eG*dT*dT*dA*dT*dT*dT*dT*dA*dT*dA*eA*eT*e[5mC]*eT*eT) [compound 531050],18
18,531051 (antisense eA*eT*e[5mC]*e[5mC]*eG*dT*dT*dG*dG*dG*dT*dT*dA*dT*dT*eT*eT*eA*eT*eA) [compound 531051],51

row,Substance,% inhibition [%]
1,531052 (antisense eA*eG*eA*e[5mC]*e[5mC]*dA*dT*d[5mC]*d[5mC]*dG*dT*dT*dG*dG*dG*eT*eT*eA*eT*eT) [compound 531052],60
2,531053 (antisense eA*eG*e[5mC]*eA*e[5mC]*dA*dG*dA*d[5mC]*d[5mC]*dA*dT*d[5mC]*d[5mC]*dG*eT*eT*eG*eG*eG) [compound 531053],49
3,531054 (antisense e[5mC]*eT*eT*eT*eA*dT*dA*dG*d[5mC]*d[5mC]*dA*dG*d[5mC]*dA*d[5mC]*eA*eG*eA*e[5mC]*e[5mC]) [compound 531054],48
4,531056 (antisense eT*eT*eT*e[5mC]*e[5mC]*d[5mC]*d[5mC]*d[5mC]*dT*dT*d[5mC]*dT*dT*dT*dA*eT*eA*eG*e[5mC]*e[5mC]) [compound 531056],45
5,531057 (antisense e[5mC]*eA*eT*e[5mC]*eT*dT*dT*dT*d[5mC]*d[5mC]*d[5mC]*d[5mC]*d[5mC]*dT*dT*e[5mC]*eT*eT*eT*eA) [compound 531057],48
6,531058 (antisense e[5mC]*e[5mC]*e[5mC]*eT*eT*dA*d[5mC]*dA*dA*dG*d[5mC]*dA*dT*d[5mC]*dT*eT*eT*eT*e[5mC]*e[5mC]) [compound 531058],60
7,531059 (antisense eA*e[5mC]*eA*eT*eT*d[5mC]*d[5mC]*dA*dT*dT*dG*dT*dG*dT*dT*eT*eG*e[5mC]*eA*eA) [compound 531059],55
8,531060 (antisense eT*eG*eG*eT*eG*dA*dT*dG*d[5mC]*d[5mC]*d[5mC]*dA*d[5mC]*d[5mC]*dA*eA*eA*e[5mC]*eG*e[5mC]) [compound 531060],35
9,531061 (antisense eT*eG*e[5mC]*eT*e[5mC]*d[5mC]*d[5mC]*dT*dG*d[5mC]*dG*dG*dG*d[5mC]*dA*e[5mC]*eA*eG*e[5mC]*e[5mC]) [compound 531061],52
10,531062 (antisense e[5mC]*eA*eG*eG*eT*dT*dG*d[5mC]*dT*d[5mC]*d[5mC]*d[5mC]*dT*dG*d[5mC]*eG*eG*eG*e[5mC]*eA) [compound 531062],39
11,531063 (antisense eG*eA*e[5mC]*eA*e[5mC]*d[5mC]*dA*dG*dG*dT*dT*dG*d[5mC]*dT*d[5mC]*e[5mC]*e[5mC]*eT*eG*e[5mC]) [compound 531063],51
12,531064 (antisense eG*eT*eG*eT*eA*dG*dA*d[5mC]*dA*d[5mC]*d[5mC]*dA*dG*dG*dT*eT*eG*e[5mC]*eT*e[5mC]) [compound 531064],56
13,531065 (antisense e[5mC]*eT*eT*eT*eG*dG*dT*dG*dT*dA*dG*dA*d[5mC]*dA*d[5mC]*e[5mC]*eA*eG*eG*eT) [compound 531065],57
14,531066 (eA*eG*e[5mC]*eG*eA*d[5mC]*dT*dT*dT*dG*dG*dT*dG*dT*dA*eG*eA*e[5mC]*eA*e[5mC]; antisense) [compound 531066],67
15,531067 (eT*eA*e[5mC]*eT*e[5mC]*dA*dG*d[5mC]*dG*dA*d[5mC]*dT*dT*dT*dG*eG*eT*eG*eT*eA; antisense) [compound 531067],31
16,531068 (e[5mC]*e[5mC]*eA*eT*eG*dT*dA*d[5mC]*dT*d[5mC]*dA*dG*d[5mC]*dG*dA*e[5mC]*eT*eT*eT*eG; antisense) [compound 531068],59
17,531070 (e[5mC]*eT*eG*eT*eG*dT*dT*dT*dT*d[5mC]*dT*d[5mC]*dT*dA*dA*eA*eA*eT*e[5mC]*e[5mC]; antisense) [compound 531070],68
18,531072 (eG*e[5mC]*eT*e[5mC]*eA*dG*dA*dA*dT*dT*dT*dG*dA*d[5mC]*dT*eT*eG*eA*eA*e[5mC]; antisense) [compound 531072],64

# From patent US11840686B2, “Modulation of prekallikrein (PKK) expression” (Ionis Pharmaceuticals, Inc., priority 2013, dated 2023)
